Tests used:
Assay in all cases: Large panel kinase profiling
Assay type in all cases: biochemical
Details in all cases: 1 μM test article, 1 mM ATP
NEK6 = target: T1, NEK6 (Homo sapiens, UniProt Q9HC98)
T1 construct: AssayQuant Technologies, Inc. (assay service)
Method: (§1) Large panel kinase profiling was performed at AssayQuant Technologies, Inc. 260 Cedar Hill Street, Marlborough, Mass. 01752 using the PhosphoSens® CSox-Sensor platform using 1 μM test article concentration and 1 mM ATP concentration (www.assayquant.com). Reactions were run in Corning, half-area 96-well, white flat round bottom polystyrene NBS microplates (Cat. #3642) after sealing using optically-clear adhesive film (TopSealA-Plus plate seal, PerkinElmer), applied with either a roller or a paddle to eliminate evaporation and resulting drift. The standard total reaction volume was 50 μL. All experiments were ran at 30° C. to control for fluctuations in ambient temperature. Plates were read from the top in kinetic mode (readings taken every 1 min), monitoring fluorescence intensity with filters using Ex 360 nm and Em 485 nm and a band width of 40 and 20 nm, respectively, and a gain of 80. Data analysis was performed using either Graphpad Prism or Gene Data Screener software.

IKBKB/IKKB = target: T2, IKBKB/IKKB (Homo sapiens, UniProt O14920)
T2 construct: AssayQuant Technologies, Inc. (service provider)
T2 sequence (O14920 1-756): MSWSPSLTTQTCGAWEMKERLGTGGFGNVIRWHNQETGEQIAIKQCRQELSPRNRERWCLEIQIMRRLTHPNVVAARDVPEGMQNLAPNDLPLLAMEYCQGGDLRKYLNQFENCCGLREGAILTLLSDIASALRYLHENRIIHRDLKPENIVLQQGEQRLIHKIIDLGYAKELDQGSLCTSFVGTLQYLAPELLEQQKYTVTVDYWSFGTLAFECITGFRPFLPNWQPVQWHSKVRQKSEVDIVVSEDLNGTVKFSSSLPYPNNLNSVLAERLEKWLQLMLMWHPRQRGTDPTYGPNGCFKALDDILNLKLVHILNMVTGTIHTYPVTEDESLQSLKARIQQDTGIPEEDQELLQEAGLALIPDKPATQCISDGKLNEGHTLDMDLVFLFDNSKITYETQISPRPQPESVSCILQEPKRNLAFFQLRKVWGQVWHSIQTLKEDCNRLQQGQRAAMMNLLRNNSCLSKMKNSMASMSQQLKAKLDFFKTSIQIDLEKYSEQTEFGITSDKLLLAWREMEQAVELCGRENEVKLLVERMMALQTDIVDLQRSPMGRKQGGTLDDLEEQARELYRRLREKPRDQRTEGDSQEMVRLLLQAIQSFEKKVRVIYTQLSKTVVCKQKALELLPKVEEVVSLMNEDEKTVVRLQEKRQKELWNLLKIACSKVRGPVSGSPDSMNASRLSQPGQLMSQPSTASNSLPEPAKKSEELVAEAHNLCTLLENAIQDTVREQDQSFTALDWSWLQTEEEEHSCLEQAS
Method: as §1

PRKAA2/AMPK211 = PRKAA2/AMPK211 (Homo sapiens, UniProt P54646)
Method: as §1

STK17B/DRAK2 = target: T3, STK17B/DRAK2 (Homo sapiens, UniProt O94768)
T3 construct: AssayQuant Technologies, Inc. (contract assay)
T3 sequence (O94768 1-372): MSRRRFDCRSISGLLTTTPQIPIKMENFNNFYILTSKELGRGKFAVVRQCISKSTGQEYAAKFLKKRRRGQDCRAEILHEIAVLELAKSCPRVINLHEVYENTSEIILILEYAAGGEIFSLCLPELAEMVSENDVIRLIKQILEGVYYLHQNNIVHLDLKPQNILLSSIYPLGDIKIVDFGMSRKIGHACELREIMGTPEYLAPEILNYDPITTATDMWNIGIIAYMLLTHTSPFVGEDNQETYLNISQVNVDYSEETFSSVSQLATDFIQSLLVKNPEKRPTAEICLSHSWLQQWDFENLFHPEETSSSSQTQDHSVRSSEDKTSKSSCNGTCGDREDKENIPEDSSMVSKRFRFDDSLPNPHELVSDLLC
Method: as §1

SK3 = target: T4, SK3 (Homo sapiens, UniProt Q9Y2K2)
T4 construct: AssayQuant Technologies, Inc. (contract assay)
Method: as §1

CDK18 = target: T5, CDK18 (Homo sapiens, UniProt Q07002)
T5 construct: AssayQuant Technologies, Inc. (ran the panel)
Method: as §1

PRKD1 = target: T6, PRKD1 (Homo sapiens, UniProt Q15139)
T6 sequence (Q15139 1-912): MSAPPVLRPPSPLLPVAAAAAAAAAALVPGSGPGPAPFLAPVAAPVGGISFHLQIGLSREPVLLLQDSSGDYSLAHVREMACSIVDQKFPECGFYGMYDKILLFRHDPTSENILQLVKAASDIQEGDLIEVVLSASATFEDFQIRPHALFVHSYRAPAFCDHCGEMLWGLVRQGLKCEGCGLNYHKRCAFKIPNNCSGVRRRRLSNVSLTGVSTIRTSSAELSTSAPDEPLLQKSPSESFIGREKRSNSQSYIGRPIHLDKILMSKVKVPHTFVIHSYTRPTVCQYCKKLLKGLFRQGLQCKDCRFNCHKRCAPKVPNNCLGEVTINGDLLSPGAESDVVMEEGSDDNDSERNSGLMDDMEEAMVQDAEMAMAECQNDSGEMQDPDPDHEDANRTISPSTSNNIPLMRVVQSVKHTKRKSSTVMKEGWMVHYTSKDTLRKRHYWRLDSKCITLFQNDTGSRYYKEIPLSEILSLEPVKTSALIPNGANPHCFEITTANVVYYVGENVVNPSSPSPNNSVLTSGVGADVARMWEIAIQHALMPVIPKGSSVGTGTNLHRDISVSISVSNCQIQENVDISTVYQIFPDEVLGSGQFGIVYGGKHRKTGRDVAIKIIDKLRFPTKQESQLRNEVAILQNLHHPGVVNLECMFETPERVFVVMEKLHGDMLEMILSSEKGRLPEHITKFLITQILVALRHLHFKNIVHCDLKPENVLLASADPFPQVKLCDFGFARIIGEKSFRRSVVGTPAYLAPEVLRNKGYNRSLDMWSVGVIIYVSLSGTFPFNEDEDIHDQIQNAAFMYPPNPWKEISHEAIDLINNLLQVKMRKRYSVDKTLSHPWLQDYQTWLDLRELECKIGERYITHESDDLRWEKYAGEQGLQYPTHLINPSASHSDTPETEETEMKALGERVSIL
Method: as §1

KIT = KIT (Homo sapiens, UniProt P10721)
Method: as §1

PIM3 = PIM3 (Homo sapiens, UniProt Q86V86)
Method: as §1

CDK7 = target: T7, CDK7 (Homo sapiens, UniProt P50613)
T7 construct: AssayQuant Technologies, Inc. (ran the panel)
Method: as §1

T5 sequence (Q07002 whole entry, species assumed): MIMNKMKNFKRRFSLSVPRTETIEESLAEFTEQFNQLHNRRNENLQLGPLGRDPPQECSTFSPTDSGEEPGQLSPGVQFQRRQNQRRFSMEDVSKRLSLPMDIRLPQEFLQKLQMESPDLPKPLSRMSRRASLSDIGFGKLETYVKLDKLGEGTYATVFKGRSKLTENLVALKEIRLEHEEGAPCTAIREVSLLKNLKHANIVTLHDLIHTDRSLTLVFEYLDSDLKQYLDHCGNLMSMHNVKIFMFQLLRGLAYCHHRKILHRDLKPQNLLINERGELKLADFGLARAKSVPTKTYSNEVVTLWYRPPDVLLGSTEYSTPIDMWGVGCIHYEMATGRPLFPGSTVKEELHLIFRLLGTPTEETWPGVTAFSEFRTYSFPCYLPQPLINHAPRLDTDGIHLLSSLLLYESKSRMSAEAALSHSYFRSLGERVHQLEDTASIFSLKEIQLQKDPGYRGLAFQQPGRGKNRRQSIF
T5 sequence (Q8ND76 whole entry partner, species assumed): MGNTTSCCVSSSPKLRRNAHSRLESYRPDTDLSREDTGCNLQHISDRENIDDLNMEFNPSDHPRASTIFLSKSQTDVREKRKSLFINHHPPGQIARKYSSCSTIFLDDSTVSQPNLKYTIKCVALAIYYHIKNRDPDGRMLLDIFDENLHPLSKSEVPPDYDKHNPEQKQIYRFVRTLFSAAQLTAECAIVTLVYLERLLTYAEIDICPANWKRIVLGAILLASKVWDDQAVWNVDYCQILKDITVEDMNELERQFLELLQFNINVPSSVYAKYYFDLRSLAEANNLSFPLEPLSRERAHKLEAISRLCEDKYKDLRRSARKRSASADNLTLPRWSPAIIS
T1 sequence (Q9HC98 whole entry, species assumed): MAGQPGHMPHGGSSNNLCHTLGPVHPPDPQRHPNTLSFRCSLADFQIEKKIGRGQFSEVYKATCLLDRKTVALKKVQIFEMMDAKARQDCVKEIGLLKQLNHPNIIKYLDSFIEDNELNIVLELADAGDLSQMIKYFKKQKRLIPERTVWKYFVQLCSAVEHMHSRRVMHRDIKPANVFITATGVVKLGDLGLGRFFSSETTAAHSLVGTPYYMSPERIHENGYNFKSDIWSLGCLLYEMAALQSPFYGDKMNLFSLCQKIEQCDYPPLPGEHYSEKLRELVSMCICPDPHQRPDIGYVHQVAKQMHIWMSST
T4 sequence (Q9Y2K2 whole entry): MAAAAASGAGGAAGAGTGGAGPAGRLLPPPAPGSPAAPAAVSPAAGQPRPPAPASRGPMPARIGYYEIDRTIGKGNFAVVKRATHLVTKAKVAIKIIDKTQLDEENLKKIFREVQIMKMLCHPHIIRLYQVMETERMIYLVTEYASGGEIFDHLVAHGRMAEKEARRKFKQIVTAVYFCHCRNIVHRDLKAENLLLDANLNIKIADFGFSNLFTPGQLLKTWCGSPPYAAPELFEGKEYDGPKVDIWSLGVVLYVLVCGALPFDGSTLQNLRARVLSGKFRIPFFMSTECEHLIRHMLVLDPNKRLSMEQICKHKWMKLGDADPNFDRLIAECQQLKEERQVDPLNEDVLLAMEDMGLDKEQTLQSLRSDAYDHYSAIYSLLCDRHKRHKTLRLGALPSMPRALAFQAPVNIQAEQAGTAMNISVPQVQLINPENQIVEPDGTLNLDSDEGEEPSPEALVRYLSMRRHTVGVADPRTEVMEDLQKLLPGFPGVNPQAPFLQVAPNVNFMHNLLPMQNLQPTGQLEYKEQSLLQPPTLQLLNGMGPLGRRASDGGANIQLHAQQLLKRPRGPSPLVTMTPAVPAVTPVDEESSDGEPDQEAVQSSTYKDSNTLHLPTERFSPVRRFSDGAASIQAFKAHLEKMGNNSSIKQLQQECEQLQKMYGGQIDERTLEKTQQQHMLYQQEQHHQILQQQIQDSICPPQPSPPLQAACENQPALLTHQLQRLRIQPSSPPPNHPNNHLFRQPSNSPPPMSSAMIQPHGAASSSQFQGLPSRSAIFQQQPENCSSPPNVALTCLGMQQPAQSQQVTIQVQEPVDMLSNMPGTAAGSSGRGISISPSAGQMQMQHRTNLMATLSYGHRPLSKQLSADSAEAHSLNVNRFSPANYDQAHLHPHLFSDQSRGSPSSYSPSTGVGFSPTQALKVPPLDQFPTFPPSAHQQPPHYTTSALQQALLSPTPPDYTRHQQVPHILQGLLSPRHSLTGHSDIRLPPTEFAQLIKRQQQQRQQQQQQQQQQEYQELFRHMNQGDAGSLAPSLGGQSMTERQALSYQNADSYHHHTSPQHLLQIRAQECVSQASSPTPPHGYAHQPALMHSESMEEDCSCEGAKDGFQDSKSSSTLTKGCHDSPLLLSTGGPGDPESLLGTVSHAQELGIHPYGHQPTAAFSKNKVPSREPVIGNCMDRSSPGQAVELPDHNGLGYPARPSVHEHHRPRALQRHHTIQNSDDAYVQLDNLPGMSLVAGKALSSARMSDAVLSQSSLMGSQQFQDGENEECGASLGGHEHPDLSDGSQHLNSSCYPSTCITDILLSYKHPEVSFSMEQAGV
Chain of KIT (P10721 26-976, species assumed): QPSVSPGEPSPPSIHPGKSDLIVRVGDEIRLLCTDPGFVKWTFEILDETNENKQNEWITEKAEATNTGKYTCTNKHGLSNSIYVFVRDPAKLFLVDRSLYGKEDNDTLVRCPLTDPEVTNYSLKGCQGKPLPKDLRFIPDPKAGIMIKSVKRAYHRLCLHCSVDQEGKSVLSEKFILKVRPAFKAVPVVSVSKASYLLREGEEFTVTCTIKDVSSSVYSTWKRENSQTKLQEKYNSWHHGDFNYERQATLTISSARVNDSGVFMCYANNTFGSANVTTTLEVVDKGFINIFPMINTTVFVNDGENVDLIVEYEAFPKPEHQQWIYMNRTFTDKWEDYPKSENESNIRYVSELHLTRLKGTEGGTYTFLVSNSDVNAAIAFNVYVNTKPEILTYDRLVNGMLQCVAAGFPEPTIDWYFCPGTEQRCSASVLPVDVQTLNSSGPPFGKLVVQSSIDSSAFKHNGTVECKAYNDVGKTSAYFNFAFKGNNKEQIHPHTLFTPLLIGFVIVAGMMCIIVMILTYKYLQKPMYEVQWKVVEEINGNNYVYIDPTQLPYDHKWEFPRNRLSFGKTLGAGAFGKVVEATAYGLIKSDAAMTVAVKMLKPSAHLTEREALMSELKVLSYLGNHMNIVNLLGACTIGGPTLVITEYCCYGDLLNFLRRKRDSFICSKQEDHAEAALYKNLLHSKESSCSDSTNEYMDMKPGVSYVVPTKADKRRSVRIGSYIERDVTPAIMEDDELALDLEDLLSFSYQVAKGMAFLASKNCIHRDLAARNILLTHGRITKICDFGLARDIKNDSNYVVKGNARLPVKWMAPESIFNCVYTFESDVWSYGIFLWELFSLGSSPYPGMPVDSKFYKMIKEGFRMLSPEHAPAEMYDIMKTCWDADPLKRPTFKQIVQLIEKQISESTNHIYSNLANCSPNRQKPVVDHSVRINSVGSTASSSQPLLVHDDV
T7 sequence (P50613 whole entry, species assumed): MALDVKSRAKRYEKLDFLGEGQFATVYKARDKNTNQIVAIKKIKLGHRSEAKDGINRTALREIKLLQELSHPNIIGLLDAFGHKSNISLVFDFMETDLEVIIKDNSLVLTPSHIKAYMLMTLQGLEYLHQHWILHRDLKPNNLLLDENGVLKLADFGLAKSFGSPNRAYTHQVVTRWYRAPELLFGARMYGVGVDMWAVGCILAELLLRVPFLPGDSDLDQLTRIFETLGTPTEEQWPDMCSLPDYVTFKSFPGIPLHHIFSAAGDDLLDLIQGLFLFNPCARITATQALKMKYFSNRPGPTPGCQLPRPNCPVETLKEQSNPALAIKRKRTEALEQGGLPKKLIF
T7 sequence (P51946 whole entry partner, species assumed): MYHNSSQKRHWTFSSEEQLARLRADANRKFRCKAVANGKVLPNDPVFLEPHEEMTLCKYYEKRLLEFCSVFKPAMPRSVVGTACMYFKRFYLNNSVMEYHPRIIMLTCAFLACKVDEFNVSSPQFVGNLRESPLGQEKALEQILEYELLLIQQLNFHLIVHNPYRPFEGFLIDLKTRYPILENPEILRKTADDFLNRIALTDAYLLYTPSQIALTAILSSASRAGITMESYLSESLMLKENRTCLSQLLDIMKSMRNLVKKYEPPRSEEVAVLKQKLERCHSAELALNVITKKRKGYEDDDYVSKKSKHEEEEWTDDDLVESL
T7 sequence (P51948 whole entry partner, species assumed): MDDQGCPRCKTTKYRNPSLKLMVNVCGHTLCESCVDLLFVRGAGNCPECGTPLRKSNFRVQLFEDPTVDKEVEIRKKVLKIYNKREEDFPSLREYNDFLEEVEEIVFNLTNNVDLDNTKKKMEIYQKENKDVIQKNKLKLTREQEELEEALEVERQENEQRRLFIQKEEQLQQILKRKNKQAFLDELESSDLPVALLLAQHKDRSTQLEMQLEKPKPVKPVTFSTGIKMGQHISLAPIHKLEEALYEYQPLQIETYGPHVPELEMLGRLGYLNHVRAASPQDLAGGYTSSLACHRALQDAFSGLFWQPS

C=CC(=O)N1CCCC(c2c(F)cc(C(N)=O)c3[nH]c4c(c23)CCCCC4)C1 (single isomer, unassigned) [Compound 5-6]
inhibition at 1 µM (NEK6): -13.5%
inhibition at 1 µM (IKBKB/IKKB): 2.5%
inhibition at 1 µM (PRKAA2/AMPK211): -24.4%
inhibition at 1 µM (STK17B/DRAK2): 0.3%
inhibition at 1 µM (SK3): 5.3%
inhibition at 1 µM (CDK18): 19%
inhibition at 1 µM (PRKD1): -6.6%
inhibition at 1 µM (KIT): 5.5%
inhibition at 1 µM (PIM3): -14.1%
inhibition at 1 µM (CDK7): -10.1%

C=CC(=O)N1CCC[C@@H](c2c(F)cc(C(N)=O)c3[nH]c4c(c23)CC2(CC4)CC2)C1 [Compound 6-2, (S)-5-(1-acryloylpiperidin-3-yl)-6-fluoro-1,2,4,9-tetrahydrospiro[carbazole-3,1′-cyclopropane]-8-carboxamide]
inhibition at 1 µM (NEK6): -5.8%
inhibition at 1 µM (IKBKB/IKKB): -7.6%
inhibition at 1 µM (PRKAA2/AMPK211): 28.8%
inhibition at 1 µM (STK17B/DRAK2): -26.9%
inhibition at 1 µM (SK3): 14.7%
inhibition at 1 µM (CDK18): -15%
inhibition at 1 µM (PRKD1): -16%
inhibition at 1 µM (KIT): 26.9%
inhibition at 1 µM (PIM3): -56.4%
inhibition at 1 µM (CDK7): -6%

C=CC(=O)N1CCC[C@@H](c2c(F)cc(C(N)=O)c3[nH]c4c(c23)CCC4)C1 [Compound 10-2, (S)-8-(1-acryloylpiperidin-3-yl)-7-fluoro-1,2,3,4-tetrahydrocyclo-penta[b]indole-5-carboxamide]
inhibition at 1 µM (NEK6): -13.6%
inhibition at 1 µM (IKBKB/IKKB): -17%
inhibition at 1 µM (PRKAA2/AMPK211): 36.6%
inhibition at 1 µM (STK17B/DRAK2): -23.7%
inhibition at 1 µM (SK3): 11.6%
inhibition at 1 µM (CDK18): 2%
inhibition at 1 µM (PRKD1): -24.2%
inhibition at 1 µM (KIT): 20.8%
inhibition at 1 µM (PIM3): -16.8%
inhibition at 1 µM (CDK7): 14.1%
